Among the data in PubChem BioAssay (NCI) are GI50 and TGI values, retold here.

Test systems include OVCAR-4 ovarian; HOP-62 NSCLC; OVCAR-5 ovarian; MALME-3M melanoma; HT29 colon; SN12C renal; MCF7 breast; HS 578T breast; SK-MEL-2 melanoma; NCI-H23 lung.
Holding throughout (assay): inhibition of tumour cell growth, NCI panel, 48 h

Several values for one entry are separate records, joined by “and”; a condition that tells them apart may be missing. Equal entries are not always repeated.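 In this assay, cells in 96-well plates receive the compound at five concentrations for 48 hours. Endpoints are linearly interpolated between the surrounding concentrations. Abbreviation: GI50, concentration required for 50% inhibition of growth. TGI denotes the concentration required for complete inhibition of growth.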

Take `COc1cc2c3c(n(CCN4CCOCC4)c(=O)c2cc1OC)-c1ccccc1C3=O`: the GI50 is above 100 µM in the assay on OVCAR-4 ovarian; 89.4 µM in the assay with HOP-62 NSCLC; above 100 µM in the assay on OVCAR-5 ovarian; above 100 µM in the assay with MALME-3M melanoma; above 100 µM in the assay with HT29 colon; above 100 µM in the assay on SN12C renal. In addition, the results for the GI50 in the assay with MCF7 breast, with HS 578T breast and in the assay with SK-MEL-2 melanoma were 37.8 µM, above 100 µM and above 100 µM, respectively. For the same molecule, the TGI with OVCAR-4 ovarian, in the assay on HOP-62 NSCLC, in the assay on OVCAR-5 ovarian, with MALME-3M melanoma, in the assay on HT29 colon and with SN12C renal was above 100 µM in each case. The TGI in the assay on MCF7 breast, with HS 578T breast and in the assay with SK-MEL-2 melanoma was above 100 µM throughout.
`COc1cc(C2c3cc4c(cc3[C@@H](Nc3ccc([N+](=O)[O-])cc3)C3COC(=O)[C@H]23)OCO4)cc(OC)c1O` (some centres undefined): the TGI with OVCAR-4 ovarian is 62.4 µM; with HOP-62 NSCLC, 0.947 µM and 2.07 µM; in the assay with OVCAR-5 ovarian, 13.6 µM; in the assay on MALME-3M melanoma, 10.5 µM; with HT29 colon it was 7.81 µM; with SN12C renal, 7.96 µM. Also, the TGI in the assay with NCI-H23 lung was 4.12 µM; with MCF7 breast, above 43.1 µM; in the assay on SK-MEL-2 melanoma, 10.7 µM. Moreover, the GI50 in the assay with OVCAR-5 ovarian is 0.722 µM; with MALME-3M melanoma it was 0.943 µM; with SN12C renal, 0.486 µM; in the assay with NCI-H23 lung it was 0.341 µM.
In the case of `COC(=O)c1ccc(NC(=O)c2ccc(NC3=C(Cl)C(=O)N(Cc4ccccc4)C3=O)cc2)cc1`, the GI50 in the assay on OVCAR-4 ovarian was 27 µM; in the assay with HOP-62 NSCLC, 11.1 µM; in the assay with OVCAR-5 ovarian, 21.5 µM; in the assay with HT29 colon, 22.5 µM; with SN12C renal, 8.13 µM; in the assay on NCI-H23 lung it was 12.1 µM. Further, the figures for the GI50 with MCF7 breast, with HS 578T breast and with SK-MEL-2 melanoma were 7.16 µM, 35.9 µM and 17.3 µM, respectively. Moreover, the TGI with OVCAR-4 ovarian stood at 60.9 µM; with HOP-62 NSCLC it was 23.1 µM; with OVCAR-5 ovarian, 39 µM; in the assay with HT29 colon, 51.2 µM; with SN12C renal, 21.7 µM; in the assay with NCI-H23 lung, 24.4 µM. Further, the TGI with MCF7 breast was 41.3 µM; in the assay with HS 578T breast, above 100 µM; with SK-MEL-2 melanoma it was 42.2 µM.
On to `CCCS(=O)c1nc(COC(=O)NC)c(COC(=O)NC)n1C` (centres undefined), for which the TGI with OVCAR-4 ovarian, in the assay with HOP-62 NSCLC, in the assay on OVCAR-5 ovarian, in the assay on MALME-3M melanoma, in the assay with HT29 colon and in the assay on SN12C renal was above 100 µM throughout. For the same molecule, the TGI in the assay with NCI-H23 lung, with MCF7 breast and with SK-MEL-2 melanoma was above 100 µM in each case.
With `CC(=O)CCc1ccc(Oc2c3c(nc4ccccc24)OCC3)cc1`, the GI50 with OVCAR-4 ovarian is above 100 µM; in the assay on HOP-62 NSCLC it was above 100 µM; with OVCAR-5 ovarian it was 77 µM; in the assay with HT29 colon, above 100 µM; in the assay with NCI-H23 lung it was 35.3 µM; in the assay with MCF7 breast, 60.6 µM. Also, the GI50 with HS 578T breast was 71.4 µM; with SK-MEL-2 melanoma it was above 100 µM. For the same molecule, the TGI in the assay on OVCAR-4 ovarian, in the assay on HOP-62 NSCLC, in the assay with OVCAR-5 ovarian, in the assay on HT29 colon, with NCI-H23 lung and with MCF7 breast was above 100 µM throughout. Also, the TGI with HS 578T breast and in the assay with SK-MEL-2 melanoma was above 100 µM throughout.
On to `CCn1cc(C(=O)N/N=C/c2cccs2)c(=O)c2cc(F)c(N3CCNC(C)C3)c(F)c21` (centres undefined), for which the GI50 is 1.96 µM in the assay with OVCAR-4 ovarian; 1.59 µM with HOP-62 NSCLC; 1.59 µM in the assay on OVCAR-5 ovarian; 1.67 µM in the assay with HT29 colon; 1.55 µM with SN12C renal; 1.79 µM with NCI-H23 lung. The GI50 in the assay with HS 578T breast was 14.1 µM; in the assay with SK-MEL-2 melanoma it was 1.96 µM. Also, the TGI in the assay with OVCAR-4 ovarian is 3.97 µM; in the assay on HOP-62 NSCLC, 3.17 µM; in the assay on OVCAR-5 ovarian it was 2.97 µM; in the assay on HT29 colon, 3.12 µM; with SN12C renal it was 2.88 µM; with NCI-H23 lung it was 3.47 µM. The figures for the TGI in the assay with HS 578T breast and in the assay with SK-MEL-2 melanoma were 35.9 µM and 3.95 µM, respectively.
`CN(C)C(=S)/N=c1\ssc(=S)n1Cc1ccco1`: the TGI with OVCAR-4 ovarian is 66.8 µM; in the assay with HOP-62 NSCLC it was above 63.1 µM; in the assay on OVCAR-5 ovarian it was above 100 µM; in the assay with MALME-3M melanoma, above 100 µM; with HT29 colon, above 24.4 µM; with SN12C renal it was above 100 µM. Further, the TGI in the assay with NCI-H23 lung was 45.6 µM; in the assay on MCF7 breast, above 100 µM; with SK-MEL-2 melanoma, 30.3 µM.
As for `CN(C)CCNC(=O)c1cccc2c1Oc1cccc([N+](=O)[O-])c1O2`, the TGI with HOP-62 NSCLC is 30.6 µM; in the assay on OVCAR-5 ovarian, 39.5 µM; with MALME-3M melanoma, 28.1 µM; with HT29 colon, 33.5 µM; with SN12C renal, above 100 µM; with NCI-H23 lung it was 72.8 µM. For the same molecule, the TGI with MCF7 breast came to 40.6 µM; in the assay on HS 578T breast, 40.2 µM; with SK-MEL-2 melanoma, 49.3 µM.
As for `COc1cc2c3c(n([C@@H]4CCOC4)c(=O)c2cc1OC)-c1cc2c(cc1C3=O)OCO2`, the GI50 is 0.0141 µM in the assay on HT29 colon, below 0.01 µM with SN12C renal, below 0.01 µM in the assay with MCF7 breast and above 100 µM with HS 578T breast. The TGI with HT29 colon, with SN12C renal, in the assay with MCF7 breast and in the assay on HS 578T breast was above 100 µM throughout.
In the case of `C(=C\c1ccncc1)/c1ccncc1`, the GI50 with OVCAR-4 ovarian, with HOP-62 NSCLC, with OVCAR-5 ovarian, in the assay with MALME-3M melanoma, in the assay with HT29 colon and in the assay on SN12C renal was above 100 µM throughout. Moreover, the GI50 in the assay with NCI-H23 lung, with MCF7 breast and in the assay on SK-MEL-2 melanoma was above 100 µM throughout. The TGI in the assay on OVCAR-4 ovarian, in the assay with HOP-62 NSCLC, in the assay with OVCAR-5 ovarian, in the assay on MALME-3M melanoma, with HT29 colon and in the assay on SN12C renal was above 100 µM in each case. The TGI in the assay on NCI-H23 lung, in the assay with MCF7 breast and with SK-MEL-2 melanoma was above 100 µM throughout.
